This test concerns IL-2 production. In words: Inhibition of IL-2 production in PHA-activated Jurkat cells (ELISA). The class given is cell-based. The settings on record: Homo sapiens, Jurkat, 20 h, PHA 2.5 μg/mL, IL-2 ELISA. The procedure:
Jurkat cells were placed in a 96 well plate (0.5 million cells per well in 1% FBS medium) then a test compound of this invention was added at different concentrations. After 10 minutes, the cells were activated with PHA (final concentration 2.5 μg/mL) and incubated for 20 hours at 37° C. under CO2. The final volume was 200 μL. Following incubation, the cells were centrifuged and the supernatants collected and stored at −70° C. prior to assaying for IL-2 production. A commercial ELISA kit (IL-2 Eli-pair, Diaclone Research, Besancon, France) was used to detect production of IL-2, from which dose response curves were obtained.
In general terms: In an ELISA, binding on a coated surface is turned into a signal by an enzyme label.

SMILES strings stand for the structures.

`O=C(Nc1c(F)cccc1F)c1cnc(-c2cccc(-c3ncco3)c2)s1` [Compound 124, N-(2,6-difluorophenyl)-2-(3-(oxazol-2-yl)phenyl)thiazole-5-carboxamide]: the IC50 (commonly the point on the concentration scale where inhibition reaches its midpoint) was greater than 1 µM.

As to `O=C(Nc1c(F)cccc1F)c1cnc(-c2cc(-c3nccs3)ccc2Cl)s1` [Compound 125, 2-(2-chloro-5-(thiazol-2-yl)phenyl)-N-(2,6-difluorophenyl)thiazole-5-carboxamide], the concentration for half-maximal inhibition (IC50) was in the range of 0.2 to 0.5 µM. To `COc1ncc(Cl)cc1-c1ncc(C(=O)Nc2c(F)cccc2F)s1` [Compound 126, 2-(5-chloro-2-methoxypyridin-3-yl)-N-(2,6-difluorophenyl)thiazole-5-carboxamide] belongs greater than 1 µM. To `Cc1ccc(-c2nnco2)cc1-c1ncc(C(=O)Nc2c(F)cccc2F)s1` [Compound 128, N-(2,6-difluorophenyl)-2-(2-methyl-5-(1,3,4-oxadiazol-2-yl)phenyl)thiazole-5-carboxamide] belongs 0.2 to 0.5 µM; to `O=C(Nc1c(F)cccc1F)c1ncc(-c2cc(C(F)(F)F)ccc2Cl)s1` [Compound 129, 5-(2-chloro-5-(trifluoromethyl)phenyl)-N-(2,6-difluorophenyl)thiazole-2-carboxamide], less than 0.03 µM. With `O=C(Nc1c(F)cccc1F)c1ncc(-c2cccc(C(F)(F)F)c2)s1` [Compound 130, N-(2,6-difluorophenyl)-5-(3-(trifluoromethyl)phenyl)thiazole-2-carboxamide] the figure was 0.1 to 0.2 µM. In the case of `O=C(Nc1c(F)cccc1F)c1ncc(-c2cccc(-c3ncco3)c2)s1` [Compound 131, N-(2,6-difluorophenyl)-5-(3-(oxazol-2-yl)phenyl)thiazole-2-carboxamide], the half-inhibitory concentration (IC50) is 0.05 to 0.1 µM.

Take `Cc1cnccc1NC(=O)c1ncc(-c2cc(-c3ncco3)ccc2C)s1` [Compound 132, 5-(2-methyl-5-(oxazol-2-yl)phenyl)-N-(3-methylpyridin-4-yl)thiazole-2-carboxamide]: the IC50 was greater than 1 µM. To `Cc1cnccc1NC(=O)c1ncc(-c2cc(-c3nccs3)ccc2C)s1` [Compound 133, 5-(2-methyl-5-(thiazol-2-yl)phenyl)-N-(3-methylpyridin-4-yl)thiazole-2-carboxamide] belongs greater than 1 µM.

Values taken from patent US8455658B2, “Thiazole and thiadiazole compounds for inflammation and immune-related uses” (Synta Pharmaceuticals Corp., priority 2006, dated 2013).
